Assay results taken from ChEMBL document CHEMBL1201862, “PubChem BioAssay data set” (2004).
Calls of active or inactive are those of the source.

Experiments:
[1] = biological target: Glucose-6-phosphate 1-dehydrogenase (Homo sapiens, UniProt P11413); assay: inhibition of Homo sapiens G6PD, dose series – biochemical, fluorescence, selectivity assay for P. falciparum G6PD inhibitor project, dose response (AID 504792); assay type: functional
[2] = biological target: T1, Mannose-6-phosphate isomerase (Homo sapiens, UniProt P34949); assay: MPI enzyme activity inhibition – biochemical, fluorescence intensity, coupled assay, primary screen (AID 1209)
T1 sequence (P34949 whole entry): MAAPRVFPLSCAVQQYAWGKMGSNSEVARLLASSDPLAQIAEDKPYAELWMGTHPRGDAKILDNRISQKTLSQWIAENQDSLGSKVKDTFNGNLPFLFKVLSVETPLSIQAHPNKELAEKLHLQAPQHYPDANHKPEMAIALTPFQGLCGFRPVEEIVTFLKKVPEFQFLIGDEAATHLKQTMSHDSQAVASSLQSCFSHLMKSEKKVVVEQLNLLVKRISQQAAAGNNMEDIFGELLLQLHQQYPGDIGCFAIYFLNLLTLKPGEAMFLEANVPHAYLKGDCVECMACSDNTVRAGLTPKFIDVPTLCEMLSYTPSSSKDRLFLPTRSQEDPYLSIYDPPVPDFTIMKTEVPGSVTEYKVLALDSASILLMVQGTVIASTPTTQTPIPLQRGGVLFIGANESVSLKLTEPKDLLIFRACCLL

[3] = biological target: T2, Voltage-gated N-type calcium channel alpha-1B subunit/Amyloid beta A4 precursor protein-binding family A member 1 (Homo sapiens, UniProt Q00975+Q02410); assay type: protein assay
[4] = biological target: T2, Voltage-gated N-type calcium channel alpha-1B subunit/Amyloid beta A4 precursor protein-binding family A member 1; assay type: protein assay; remark: listed apart in the source
Vero = assay: mammalian cell viability reduction – secondary assay, cytotoxicity control for West Nile virus antiviral project, dose response (AID 1650); assay type: functional; settings: Chlorocebus sabaeus
[5] = antiviral protection against BTV-induced cell death – arbovirus, BSR cells, confirmation (AID 1250); assay type: functional;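 also: protection from viral cytopathic effect measured as cell viability by ATP luminescence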
Cytochrome P450 2C9 = Cytochrome P450 2C9 (Homo sapiens, UniProt P11712)
[6] = biological target: Protein-tyrosine kinase 2-beta (Homo sapiens, UniProt Q14289);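 also: potency of inhibitors of PYK2 kinase phosphorylation of poly-GT substrate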
[7] = biological target: Sphingosine 1-phosphate receptor 2 (Homo sapiens, UniProt O95136); assay: Dose Response Cell Based Assay for Agonists of the S1P2 Receptor of Purchased Analogues. [Related pubchem assays: 729, 843, 854, 736 ]; assay type: functional
[8] = biological target: T3, Dual specificity protein phosphatase 6 (Rattus norvegicus, UniProt Q64346); assay: inhibition of rat DUSP6 enzyme activity – biochemical, in vitro, primary screen (AID 425)
T3 sequence (Q64346 whole entry): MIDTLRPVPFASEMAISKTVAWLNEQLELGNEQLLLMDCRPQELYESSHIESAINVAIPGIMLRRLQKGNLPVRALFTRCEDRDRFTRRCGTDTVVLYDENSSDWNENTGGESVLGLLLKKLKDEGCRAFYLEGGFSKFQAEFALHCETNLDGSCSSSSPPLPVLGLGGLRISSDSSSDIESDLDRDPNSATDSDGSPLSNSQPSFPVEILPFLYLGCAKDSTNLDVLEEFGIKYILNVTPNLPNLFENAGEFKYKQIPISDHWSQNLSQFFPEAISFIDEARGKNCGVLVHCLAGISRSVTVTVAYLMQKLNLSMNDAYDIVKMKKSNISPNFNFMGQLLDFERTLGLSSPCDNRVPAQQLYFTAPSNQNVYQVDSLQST

[9] = biological target: Heat shock protein HSP 90-alpha (Homo sapiens, UniProt P07900); assay type: functional, organism-based
[10] = microbe, parasite or virus in culture; assay type: functional; settings: Mycobacterium tuberculosis
[11] = A High Throughput Confirmatory Assay used to Identify Novel Compounds that Inhibit Mycobacterium Tuberculosis in the absence of Glycerol.; assay type: functional
[12] = biological target: Neuropeptide Y receptor type 2 (Homo sapiens, UniProt P49146); assay type: functional, cell-based;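 also: HEK293 cells expressing the receptor and a CNG channel; stimulus was NPY near EC95 followed by isoproterenol to raise cAMP; antagonist potency measured as restoring cAMP signal that NPY suppresses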
[13] = biological target: Neuropeptide Y receptor type 1 (Homo sapiens, UniProt P25929); assay type: functional;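 also: HEK293 cells with a CNG channel challenged with NPY then isoproterenol; potency as antagonist that reverses NPY suppression of cAMP signal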
Protein skinhead-1 = biological target: T4, Protein skinhead-1 (Caenorhabditis elegans, UniProt P34707); assay type: functional
T4 sequence (P34707 whole entry): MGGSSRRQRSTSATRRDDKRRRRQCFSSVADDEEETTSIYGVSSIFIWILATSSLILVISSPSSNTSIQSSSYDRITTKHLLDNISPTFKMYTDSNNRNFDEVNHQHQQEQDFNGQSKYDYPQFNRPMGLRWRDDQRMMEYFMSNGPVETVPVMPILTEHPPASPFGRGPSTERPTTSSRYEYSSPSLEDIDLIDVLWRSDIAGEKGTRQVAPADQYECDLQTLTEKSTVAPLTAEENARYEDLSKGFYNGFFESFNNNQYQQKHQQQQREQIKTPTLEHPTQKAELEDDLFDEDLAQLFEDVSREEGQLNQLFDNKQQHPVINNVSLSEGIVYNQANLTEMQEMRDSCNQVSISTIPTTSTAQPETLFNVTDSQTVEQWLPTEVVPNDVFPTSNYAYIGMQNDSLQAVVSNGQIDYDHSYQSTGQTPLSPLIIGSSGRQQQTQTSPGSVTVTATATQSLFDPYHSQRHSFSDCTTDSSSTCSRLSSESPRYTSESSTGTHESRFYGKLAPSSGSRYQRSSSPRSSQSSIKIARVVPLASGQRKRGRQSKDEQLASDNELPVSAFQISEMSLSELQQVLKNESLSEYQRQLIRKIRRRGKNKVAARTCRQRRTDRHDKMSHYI

Ion channel NompC = Ion channel NompC (Danio rerio, UniProt Q7T1G6); assay: Fluorescence counterscreen assay for TRPML3 agonists: dose response cell-based high-throughput screening assay to identify agonists of the transient receptor potential channel N1 (TRPN1). [Related pubchem assays: 1526, 1424, 1448 ]; assay type: functional
[14] = blockers of CRF-binding protein–CRF-R2 complex – cell-based, uHTS hits, 384-well, dose response (AID 651639); assay type: functional, Homo sapiens; settings: read-out: IC50_Mean
[15] = biological target: T5, Corticotropin-releasing factor receptor 2/Corticotropin-releasing factor-binding protein (Homo sapiens, UniProt P24387+Q13324); assay: activators of CRF receptor 2 with binding protein – uHTS hits, confirmation (AID 602473); assay type: functional; settings: read-out: EC50_Mean
T5 sequence (Q13324 whole entry): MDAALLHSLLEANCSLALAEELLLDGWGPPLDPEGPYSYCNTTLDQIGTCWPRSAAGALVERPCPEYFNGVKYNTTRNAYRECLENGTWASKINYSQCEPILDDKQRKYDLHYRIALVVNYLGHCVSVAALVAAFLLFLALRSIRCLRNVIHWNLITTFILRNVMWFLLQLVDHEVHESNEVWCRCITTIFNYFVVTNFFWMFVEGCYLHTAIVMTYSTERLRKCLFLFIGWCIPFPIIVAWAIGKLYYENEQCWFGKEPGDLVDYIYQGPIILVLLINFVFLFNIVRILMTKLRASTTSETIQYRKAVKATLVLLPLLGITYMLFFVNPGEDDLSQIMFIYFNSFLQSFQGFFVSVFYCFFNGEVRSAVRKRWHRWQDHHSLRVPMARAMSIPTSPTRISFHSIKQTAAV
T5 sequence (P24387 whole entry): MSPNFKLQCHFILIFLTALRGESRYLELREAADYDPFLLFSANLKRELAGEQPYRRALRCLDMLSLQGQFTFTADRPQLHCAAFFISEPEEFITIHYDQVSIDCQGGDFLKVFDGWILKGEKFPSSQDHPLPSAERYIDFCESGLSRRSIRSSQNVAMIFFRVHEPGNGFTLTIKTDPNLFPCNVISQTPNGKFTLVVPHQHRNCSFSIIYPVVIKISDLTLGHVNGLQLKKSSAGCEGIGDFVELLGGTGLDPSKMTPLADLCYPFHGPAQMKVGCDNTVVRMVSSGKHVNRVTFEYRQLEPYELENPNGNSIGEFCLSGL

Mucolipin-3 = Mucolipin-3 (Homo sapiens, UniProt Q8TDD5); assay: Dose response cell-based high-throughput screening assay for agonists of the transient receptor potential channel ML3 (TRPML3). [Related pubchem assays: 1526, 1424, 1448 ]; assay type: functional
[16] = biological target: T5, Corticotropin-releasing factor receptor 2/Corticotropin-releasing factor-binding protein; assay: Dose Response confirmation of uHTS hits for small molecule antagonists of the CRF-binding protein and CRF-R2 receptor complex.; assay type: functional; settings: read-out: IC50_Mean
Estrogen receptor = biological target: T6, Estrogen receptor (Homo sapiens, UniProt P03372); assay: ERα coactivator recruitment enhancers – biochemical, TR-FRET, ERα LBD, dose response (AID 737)
T6 sequence (P03372 whole entry): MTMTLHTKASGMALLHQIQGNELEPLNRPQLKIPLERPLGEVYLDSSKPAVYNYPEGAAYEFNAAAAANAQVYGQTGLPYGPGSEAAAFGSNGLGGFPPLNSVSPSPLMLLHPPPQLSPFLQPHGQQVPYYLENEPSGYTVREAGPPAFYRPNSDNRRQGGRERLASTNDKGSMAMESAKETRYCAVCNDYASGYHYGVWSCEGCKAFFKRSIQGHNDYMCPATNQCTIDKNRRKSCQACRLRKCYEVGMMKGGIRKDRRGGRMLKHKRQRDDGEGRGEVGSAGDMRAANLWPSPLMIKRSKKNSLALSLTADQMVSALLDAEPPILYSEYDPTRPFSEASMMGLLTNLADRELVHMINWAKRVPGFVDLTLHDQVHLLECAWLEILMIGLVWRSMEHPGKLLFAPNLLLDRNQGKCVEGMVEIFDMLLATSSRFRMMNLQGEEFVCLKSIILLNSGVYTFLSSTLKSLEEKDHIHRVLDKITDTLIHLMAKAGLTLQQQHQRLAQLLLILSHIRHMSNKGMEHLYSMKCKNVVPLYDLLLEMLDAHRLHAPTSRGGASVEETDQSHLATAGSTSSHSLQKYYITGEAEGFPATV

[17] = Luminescence Cell-Based Dose Confirmation HTS to Identify Inhibitors of Polyadenylation.; assay type: functional
Genome polyprotein = Genome polyprotein (dengue virus type 2, UniProt P29990); assay: flavivirus cap methylation enzyme inhibition – biochemical, confirmation dose response, primary screen (AID 588689); assay type: functional
[18] = CCR5-tropic HIV-1 fusion blockers – cell-based, CCR5-tropic Env, dose response (AID 2279); assay type: functional

T2 sequence (Q00975 whole entry): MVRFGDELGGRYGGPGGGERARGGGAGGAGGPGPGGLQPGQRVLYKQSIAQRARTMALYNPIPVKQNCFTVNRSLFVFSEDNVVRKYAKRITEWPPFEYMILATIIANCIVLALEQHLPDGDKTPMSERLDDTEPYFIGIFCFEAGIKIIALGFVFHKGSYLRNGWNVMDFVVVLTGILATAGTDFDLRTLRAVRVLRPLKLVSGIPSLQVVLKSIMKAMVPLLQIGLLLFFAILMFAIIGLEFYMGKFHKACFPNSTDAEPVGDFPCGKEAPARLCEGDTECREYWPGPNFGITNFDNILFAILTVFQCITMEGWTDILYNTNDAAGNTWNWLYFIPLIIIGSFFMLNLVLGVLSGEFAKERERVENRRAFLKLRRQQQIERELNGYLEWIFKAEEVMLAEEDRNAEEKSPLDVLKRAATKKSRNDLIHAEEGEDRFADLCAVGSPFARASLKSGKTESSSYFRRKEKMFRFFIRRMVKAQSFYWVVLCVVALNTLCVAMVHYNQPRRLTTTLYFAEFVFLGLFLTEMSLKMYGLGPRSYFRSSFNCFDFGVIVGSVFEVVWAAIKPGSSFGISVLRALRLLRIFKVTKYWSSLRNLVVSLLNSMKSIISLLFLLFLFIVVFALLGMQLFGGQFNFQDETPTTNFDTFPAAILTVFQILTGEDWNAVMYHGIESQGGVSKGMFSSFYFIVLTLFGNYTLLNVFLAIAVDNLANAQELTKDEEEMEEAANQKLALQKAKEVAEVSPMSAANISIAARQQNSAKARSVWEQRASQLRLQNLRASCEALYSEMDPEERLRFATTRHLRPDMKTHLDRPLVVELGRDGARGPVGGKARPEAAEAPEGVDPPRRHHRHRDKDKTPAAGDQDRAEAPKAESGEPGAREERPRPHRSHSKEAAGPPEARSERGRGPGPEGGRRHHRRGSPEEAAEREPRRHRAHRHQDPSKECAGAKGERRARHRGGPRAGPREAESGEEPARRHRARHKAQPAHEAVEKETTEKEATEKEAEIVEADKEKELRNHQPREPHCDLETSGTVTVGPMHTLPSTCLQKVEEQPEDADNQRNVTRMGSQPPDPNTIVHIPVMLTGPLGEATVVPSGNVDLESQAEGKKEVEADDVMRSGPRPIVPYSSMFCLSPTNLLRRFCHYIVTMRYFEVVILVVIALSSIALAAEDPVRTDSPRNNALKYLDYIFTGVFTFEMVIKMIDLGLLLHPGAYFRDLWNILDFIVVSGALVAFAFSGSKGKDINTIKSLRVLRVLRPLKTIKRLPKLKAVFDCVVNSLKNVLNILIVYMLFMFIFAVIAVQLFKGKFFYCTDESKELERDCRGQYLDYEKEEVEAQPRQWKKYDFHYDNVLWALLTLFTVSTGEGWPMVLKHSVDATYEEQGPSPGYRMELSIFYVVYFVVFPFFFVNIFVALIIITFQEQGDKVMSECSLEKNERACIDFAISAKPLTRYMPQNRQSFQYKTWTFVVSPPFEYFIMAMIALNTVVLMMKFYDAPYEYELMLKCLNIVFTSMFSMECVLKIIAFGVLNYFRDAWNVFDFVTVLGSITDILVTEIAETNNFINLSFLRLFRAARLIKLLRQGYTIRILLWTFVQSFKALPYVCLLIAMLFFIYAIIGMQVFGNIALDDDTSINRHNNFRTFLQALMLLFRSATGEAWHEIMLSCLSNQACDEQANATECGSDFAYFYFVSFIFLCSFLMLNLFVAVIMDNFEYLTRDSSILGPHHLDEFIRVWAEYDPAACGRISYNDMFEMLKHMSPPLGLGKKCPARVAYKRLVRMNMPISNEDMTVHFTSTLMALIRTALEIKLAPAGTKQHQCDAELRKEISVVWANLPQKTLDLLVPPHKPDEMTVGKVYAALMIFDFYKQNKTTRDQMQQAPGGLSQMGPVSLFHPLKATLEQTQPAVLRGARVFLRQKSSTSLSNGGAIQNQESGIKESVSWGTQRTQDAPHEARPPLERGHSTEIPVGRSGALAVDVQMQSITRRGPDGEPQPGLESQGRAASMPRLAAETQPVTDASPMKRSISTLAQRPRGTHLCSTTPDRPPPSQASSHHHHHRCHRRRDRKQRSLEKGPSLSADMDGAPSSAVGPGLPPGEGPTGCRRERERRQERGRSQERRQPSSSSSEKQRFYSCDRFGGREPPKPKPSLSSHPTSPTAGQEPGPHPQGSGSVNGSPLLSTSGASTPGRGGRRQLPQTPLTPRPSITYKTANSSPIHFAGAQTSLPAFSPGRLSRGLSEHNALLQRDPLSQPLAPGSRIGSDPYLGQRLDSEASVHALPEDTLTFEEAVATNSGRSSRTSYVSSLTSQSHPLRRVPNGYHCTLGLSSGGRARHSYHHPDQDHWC
T2 sequence (Q02410 whole entry): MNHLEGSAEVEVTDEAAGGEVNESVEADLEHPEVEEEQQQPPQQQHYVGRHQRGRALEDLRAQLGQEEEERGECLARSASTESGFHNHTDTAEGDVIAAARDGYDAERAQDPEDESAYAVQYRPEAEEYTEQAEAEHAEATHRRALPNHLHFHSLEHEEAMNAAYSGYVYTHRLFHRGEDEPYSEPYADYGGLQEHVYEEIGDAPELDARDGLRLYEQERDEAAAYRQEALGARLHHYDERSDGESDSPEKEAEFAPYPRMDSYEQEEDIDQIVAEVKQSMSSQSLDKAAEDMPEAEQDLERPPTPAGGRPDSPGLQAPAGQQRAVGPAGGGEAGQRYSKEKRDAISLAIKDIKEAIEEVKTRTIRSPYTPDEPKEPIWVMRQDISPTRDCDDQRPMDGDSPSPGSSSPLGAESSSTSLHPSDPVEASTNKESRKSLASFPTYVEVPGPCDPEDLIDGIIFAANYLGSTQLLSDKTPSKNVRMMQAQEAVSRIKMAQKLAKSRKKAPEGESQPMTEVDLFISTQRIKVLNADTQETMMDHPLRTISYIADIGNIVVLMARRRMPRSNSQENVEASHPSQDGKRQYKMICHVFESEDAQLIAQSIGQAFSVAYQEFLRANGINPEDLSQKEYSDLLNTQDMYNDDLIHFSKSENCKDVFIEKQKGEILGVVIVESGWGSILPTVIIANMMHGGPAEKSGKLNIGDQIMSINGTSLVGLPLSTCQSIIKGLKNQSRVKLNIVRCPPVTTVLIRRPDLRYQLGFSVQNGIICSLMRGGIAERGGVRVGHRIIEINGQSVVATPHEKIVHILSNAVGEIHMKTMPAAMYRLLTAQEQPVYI
Chain of Neuropeptide Y receptor type 1 (P25929 whole entry): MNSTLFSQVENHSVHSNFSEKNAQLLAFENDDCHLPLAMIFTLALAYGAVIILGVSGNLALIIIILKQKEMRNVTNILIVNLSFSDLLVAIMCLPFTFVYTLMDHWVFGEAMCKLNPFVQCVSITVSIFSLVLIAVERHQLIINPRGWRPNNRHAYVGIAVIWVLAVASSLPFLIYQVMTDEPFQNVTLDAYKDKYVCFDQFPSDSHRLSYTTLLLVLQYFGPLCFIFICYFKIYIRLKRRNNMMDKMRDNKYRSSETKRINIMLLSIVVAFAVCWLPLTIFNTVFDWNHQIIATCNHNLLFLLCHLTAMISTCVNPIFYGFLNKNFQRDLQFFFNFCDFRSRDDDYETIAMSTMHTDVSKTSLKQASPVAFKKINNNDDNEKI
Chain of Genome polyprotein (P29990 2492-3391 limits assumed): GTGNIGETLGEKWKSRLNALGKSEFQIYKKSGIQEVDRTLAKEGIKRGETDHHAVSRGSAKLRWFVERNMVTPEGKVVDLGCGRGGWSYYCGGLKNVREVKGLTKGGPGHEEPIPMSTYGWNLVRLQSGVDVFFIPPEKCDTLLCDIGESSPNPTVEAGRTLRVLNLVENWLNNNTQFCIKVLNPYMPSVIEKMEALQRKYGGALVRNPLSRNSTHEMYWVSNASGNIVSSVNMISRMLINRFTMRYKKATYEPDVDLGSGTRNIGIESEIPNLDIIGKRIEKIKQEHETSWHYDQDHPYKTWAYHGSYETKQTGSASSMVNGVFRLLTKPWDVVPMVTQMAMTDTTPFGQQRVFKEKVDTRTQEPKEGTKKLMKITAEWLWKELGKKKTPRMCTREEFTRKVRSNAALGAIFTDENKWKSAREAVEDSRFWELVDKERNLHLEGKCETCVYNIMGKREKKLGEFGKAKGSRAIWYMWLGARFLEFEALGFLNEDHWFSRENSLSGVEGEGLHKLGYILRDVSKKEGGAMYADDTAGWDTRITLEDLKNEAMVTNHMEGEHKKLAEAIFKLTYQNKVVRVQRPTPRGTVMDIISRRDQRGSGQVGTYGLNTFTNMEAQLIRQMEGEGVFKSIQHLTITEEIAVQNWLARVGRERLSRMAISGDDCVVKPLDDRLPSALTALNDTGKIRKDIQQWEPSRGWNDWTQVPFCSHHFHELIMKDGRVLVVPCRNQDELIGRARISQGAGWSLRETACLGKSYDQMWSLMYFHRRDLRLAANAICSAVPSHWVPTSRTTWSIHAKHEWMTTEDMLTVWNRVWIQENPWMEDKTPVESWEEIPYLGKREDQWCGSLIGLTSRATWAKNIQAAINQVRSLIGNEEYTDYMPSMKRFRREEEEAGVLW
Chain of Cytochrome P450 2C9 (P11712 whole entry): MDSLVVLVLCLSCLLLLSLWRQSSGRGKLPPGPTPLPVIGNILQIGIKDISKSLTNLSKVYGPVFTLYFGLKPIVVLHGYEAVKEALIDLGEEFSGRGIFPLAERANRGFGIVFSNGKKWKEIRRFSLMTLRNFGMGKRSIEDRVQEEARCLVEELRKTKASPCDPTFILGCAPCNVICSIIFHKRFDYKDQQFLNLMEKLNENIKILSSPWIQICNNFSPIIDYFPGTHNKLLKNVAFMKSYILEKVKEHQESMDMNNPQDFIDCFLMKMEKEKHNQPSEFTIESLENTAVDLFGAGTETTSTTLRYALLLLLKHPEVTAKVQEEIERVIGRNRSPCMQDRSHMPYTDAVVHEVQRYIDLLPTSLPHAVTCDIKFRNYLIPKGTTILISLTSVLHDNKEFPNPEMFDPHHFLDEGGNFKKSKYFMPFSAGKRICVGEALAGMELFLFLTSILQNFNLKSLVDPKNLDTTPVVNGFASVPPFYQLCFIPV

With COc1ccc(N2CSC3=C(C#N)C(c4cc(OC)c(OC)cc4OC)CC(=O)N3C2)c(OC)c1 (stereo not given) the IC50 [1] was 42.5 µM (inactive), the IC50 [2] was 4.3 µM (active) and the IC50 [3] was 11.3 µM (active). The IC50 [4] was 42.3 µM (active).
For CC(=O)Nc1cccc(C(=O)/C=C/c2ccc(F)cc2)c1, the CC50 (Vero) was 20.6 µM (active).
With Cc1ccc(C)c(S(=O)(=O)N2CCN(C(C)C(=O)Nc3ccccc3-c3ccccc3)CC2)c1 (stereo not given) the IC50 [5] was 44.1 µM (active).
With COc1ccc(-c2coc3cc4oc(=O)cc(C)c4cc23)cc1F the AC50 (Cytochrome P450 2C9) was 5.01 µM (inconclusive) and the IC50 [6] was 12.5 µM (not active).
For Cc1cc(C(=O)CN2C(=O)NC(Cc3ccccc3)C2=O)c(C)n1Cc1ccccc1 (stereo not given), the EC50 [7] was > 30 µM (not active).
With COc1ccc(Cn2c(C)nc3c(c2=O)c2nc4ccccc4nc2n3Cc2ccco2)cc1 the IC50 [8] was 6.78 µM (active).
With O=C(OCC(=O)N1CCN(C(=O)c2ccco2)CC1)c1cc(-c2cccc(Br)c2)nc2ccccc12 the AC50 [9] was 4.25 µM (active), the CC50 [10] was 14.4 µM (active) and the IC50 [11] was > 100 µM (active).
For c1ccc(-c2nc(CSc3nnc(-c4cccs4)o3)cs2)cc1, the IC50 [12] was 17.3 µM (not active), the IC50 [13] was 12.8 µM (not active) and the IC50 (Protein skinhead-1) was > 100 µM (inactive).
For Cc1ccc(S(=O)(=O)N2CCCCCC2)cc1[N+](=O)[O-], the EC50 (Ion channel NompC) was > 29.9 µM (not active), the IC50 [14] was > 20 µM (inactive) and the EC50 [15] was > 53 µM (inactive). The EC50 (Mucolipin-3) was 5.29 µM (active) and the IC50 [16] was 18.3 µM (active).
For O=C(Nc1nccs1)c1nc(-c2ccccc2)n(-c2ccccc2)n1, the EC50 (Estrogen receptor) was 18.6 µM (active).
For COc1cc(C2CC(=O)Oc3c(C(CCN4CCOCC4)c4ccc(N(C)C)cc4)c(OC)cc(OC)c32)cc(OC)c1OC (stereo not given), the EC50 [17] was > 120 µM (not active).
In the case of CCCOc1cccc(C2C(C(=O)c3cc4ccccc4o3)=C(O)C(=O)N2c2cc(C)on2)c1 (stereo not given), the IC50 (Genome polyprotein) is reported as 32.6 µM (active) and the IC50 [18] is reported as 44.5 µM (active).
